From ChEMBL document CHEMBL3507680, “University of Dundee, Gates Library screen for HepG2 cell viability”
Where “and” joins values, the source holds several entries; their conditions need not be identical. Identical values can stand only once.

test: Human HepG2 cell viability assay in 384 well format; assay type: toxicity, cell-based; parameters: dose 125 nL, time 70.5 hour; concentration not given beside the values; conditions: HepG2 cells, read-out: Inhibition

Row | Structure (SMILES) | cytotoxicity at 70.5 h [%]
1 | O=C(Cn1cc(-c2ccccc2)ncc1=O)Nc1nc(C2CC2)n[nH]1 | 99.8
2 | CSc1ccc(NC(=O)Nc2ccc3c(c2)N(S(C)(=O)=O)CC3)cc1 | 68.5
3 | COC[C@H]1CCC[C@]12CN(Cc1cccc(C)n1)CCO2 | 63.1
4 | CCCc1nc2c(c(C)c(C)n2Cc2ccccn2)c(N)c1CC | 80.2
5 | CC1(C)Cc2nc(C(C)(C)C)ncc2C(NC(=O)C2(N)CC2)C1 (stereo unspecified) | 105
6 | CC(C)N(C)C(=O)c1ccc(CNc2ccncc2Cl)cc1 | 74.8
7 | CC(C)OCCN1CCC(Nc2nccnc2C#N)CC1 | 62.9
8 | COc1ccccc1N1CCN(C(=O)CSCC2CC2)C(C)C1 (stereo unspecified) | 97.2
9 | Cc1ccc(N2CCC3(CCN(C(=O)c4ccnnc4)CC3)CC2)nn1 | 2.95
10 | COc1ccc([C@@H]2CN(Cc3ccncc3)C[C@H]2N(C)C)cc1 | -9.42
11 | CCc1ncc2c(n1)CN(CC(=O)Nc1ccncc1)CC2 | -3.06
12 | COCCN(C)C[C@@H]1CN(C(=O)c2ccc(C)c(Cl)c2)C[C@@H]1CO | 1.13
13 | CN(C)S(=O)(=O)N1CCOCC1CC(=O)NCCOc1ccccc1 (stereo unspecified) | -15.5
14 | O=C(c1cccc(OCc2cscn2)c1)N1CCOCC1 | 0.0866
15 | COCc1noc(CCC(=O)c2ccc3c(c2)OCCO3)n1 | -19.1
16 | CCN(CC1CCOC1)C(=O)c1nc(-c2ccco2)sc1C (stereo unspecified) | -2.01
17 | CCN(CCO)C(=O)c1cc(Cn2c(C)nc3ccccc32)[nH]n1 | -9.25
18 | NC(=O)C1CCN(Cc2csc(-c3ncccn3)n2)CC1 | 18.7
19 | CC(C)c1nc(C2CCCN(C(=O)c3ccc4nccn4c3)C2)no1 (stereo unspecified) | -3.59
20 | CCCNC(=O)CNC(=O)CC1CCCc2cc(OC)ccc21 (stereo unspecified) | -6.62
21 | COCc1cnc2n1CCN(C(=O)c1oc3ccccc3c1C)C2C (stereo unspecified) | 18.3
22 | CC1(C)CN(c2cc(C3CC3)ncn2)C[C@]1(C)O | 21.7
23 | CC(c1ccon1)N(C)Cc1cc(O)c2cc(F)ccc2n1 (stereo unspecified) | -10.6

Row | Structure (SMILES) | cytotoxicity at 70.5 h [%]
24 | CCCn1c(C)c(CC(=O)NCCNC(C)=O)c2c1CC(C)(C)CC2=O | 1.34
25 | O=C(CN1CCCC1Cn1cncn1)NC(C1CC1)C1CC1 (stereo unspecified) | -4.54
26 | O=C(CN1CCS(=O)(=O)CC1)NC1CCCc2ccccc21 (stereo unspecified) | -7.89
27 | Cc1cc(C)c(NC(=O)Nc2cnn(CC(O)CN(C)C)c2)c(C)c1 (stereo unspecified) | -13.2
28 | COCC(=O)N1CCCN(Cc2cc(O)c3ccccc3n2)CC1 | -9.45
29 | CN(C)C[C@H]1OC[C@@H]2CCN(S(=O)(=O)c3ccc(F)cc3)C[C@@H]21 | -7.32
30 | CCc1cc(O)nc(C2CCCN2C(=O)c2cccnc2)n1 (stereo unspecified) | 20.7
31 | COCCN1CCC(CNC(=O)C2(c3ccccc3)CCOCC2)C1 (stereo unspecified) | -4.78
32 | CCC1CCCCN1C(=O)Cn1nc(-c2cc(C)oc2C)cc(N)c1=O (stereo unspecified) | -3.58
33 | CC(C)NC(=O)C1CN(C(=O)N2CCCC2)CC12CCOCC2 (stereo unspecified) | -1.86
34 | COc1nccnc1N1CCN(Cc2cccc(C)c2)C(=O)C1 | 7
35 | COCC1CN(Cc2ccsc2)Cc2cnn(C)c21 (stereo unspecified) | -2.85
36 | Cc1nn(C)c(Oc2cccc(F)c2)c1NC(=O)C1CCCO1 (stereo unspecified) | -6.09
37 | Fc1cccc(-c2nc(CN3CCCC3Cn3cncn3)co2)c1 (stereo unspecified) | 8.65
38 | COc1cccc(CCC2CCCN(C(C)=O)C2)c1 (stereo unspecified) | -1.99
39 | CC(C)(C(=O)NCc1n[nH]c(=O)[nH]1)c1ccc(F)cc1 | -2.39
40 | CC(C)c1nnc(CN2CCCC3(CC2)CN(C)C(=O)O3)o1 (stereo unspecified) | -3.73
41 | Cc1nc(CN2CCC(c3nc4cc(Cl)ccc4o3)CC2)oc1C | -19.4
42 | COc1ccc(C(C)N(C)Cc2nc3c(cnn3C)c(=O)[nH]2)cc1 (stereo unspecified) | -8.42
43 | COCC1COCCC12CCN(Cc1cccs1)CC2 (stereo unspecified) | -7.86
44 | Cc1nccn1[C@@H]1CC[C@@H](NC(=O)CCOc2ccccc2)[C@H]1O | 16.9
45 | CCc1cc(CN(C)C(=O)c2cnc3c(c2)nc(N)n3CC)on1 | -2.5
46 | O=C(NCC1CCC1)c1ccnc(-n2ccnc2)c1 | 1.75

Row | Structure (SMILES) | cytotoxicity at 70.5 h [%]
47 | COc1ccccc1NC(=O)c1cnc(C2CCN(C(C)=O)C2)nc1C (stereo unspecified) | -1.01
48 | O=C1CNc2ncnc(N3CCN(Cc4ccccc4F)CC3)c2N1 | -7.69
49 | CCCc1noc(CN2CCC(N(C)Cc3nnc(C4CC4)o3)C2)n1 (stereo unspecified) | 4.17
50 | O=C1N(CC2CCCC2)CCC12CCN(c1ncc(F)cn1)CC2 | -7.22
51 | Cn1cc(C[C@H]2[C@H](O)CCN2Cc2ccc(F)cc2)cn1 | 4.14
52 | CCN(Cc1cnn(C)c1)C[C@H]1CC[C@@H](Cc2ccc(CO)cc2)O1 | -3.31
53 | Cc1nn(C)cc1C1CC(=O)Nc2c1cnn2C(C)(C)C (stereo unspecified) | -4.68
54 | CC(C)(C)NC(=O)N1CCN(Cc2cccnc2)CC1 | -3.39
55 | O=C1CC[C@@H](C(=O)N2CCC(Cn3cc(C4CCCCC4)nn3)CC2)N1 | -1.59
56 | CCCc1nnc(NC(C)c2ccc(F)cc2)o1 (stereo unspecified) | -8.69
57 | CCn1ccnc1CN1CCN(C(C)C(=O)NCC(F)(F)F)CC1 (stereo unspecified) | 10
58 | O=C(NCc1cn2c(n1)CN(Cc1ccncc1)CC2)C1CCC1 | 8.23
59 | CC(C)(C)C(=O)N1C[C@@H](F)[C@@H](OCc2nc3ccccc3o2)C1 | -3.29
60 | O=C1NC(c2ccccc2)=N[C@@]12CC[C@@H]1CN(Cc3ccco3)C[C@@H]12 | -5.19
61 | COCc1nnc(C(=O)N(C)Cc2ccc(OC)cc2)o1 | -0.9
62 | Cc1ccc(NC(=O)CN2CCC(OCC3CCCO3)CC2)c(C)c1 (stereo unspecified) | 5.15
63 | Cc1nc2c(c(N(C)C)n1)CCN(C(=O)c1sccc1S(N)(=O)=O)C2 | -7
64 | Cc1cccc(-c2ccc(C(=O)NCCN(C)C3CC3)c(=O)[nH]2)c1 | -34.3
65 | CNc1snc(C)c1C(=O)N1CCCC(n2nc(C)nc2C)C1 (stereo unspecified) | -10.6
66 | Nc1cc2c(nn1)CCN(C(=O)c1csc(-c3ccco3)n1)C2 | -4.34
67 | COc1ccc2c(c1)OCC(CNC(=O)c1ccncc1)C2 (stereo unspecified) | 13.9
68 | O=C(NCC1CCOCC1)c1cc(-c2ccc3c(c2)CCO3)n[nH]1 | 17.3
69 | COc1cc2c(cc1-c1nc3c(cnn3C(C)C3CC3)[nH]1)OCO2 (stereo unspecified) | -2.31

test: Human HepG2 cell viability dose-response assay; assay type: toxicity, cell-based; conditions: not given

Row | Structure (SMILES) | BOTTOM | HILLSLOPE | TOP | pXC50
70 | O=C(Cn1cc(-c2ccccc2)ncc1=O)Nc1nc(C2CC2)n[nH]1 | -8.692 and -5.853 | 2.68 and 2.241 | 101 and 102.4 | 5.614 and 5.594
71 | CSc1ccc(NC(=O)Nc2ccc3c(c2)N(S(C)(=O)=O)CC3)cc1 | -10.17 and -8.332 | 0.8924 and 0.8709 | 100 | 4.975 and 4.922
72 | COC[C@H]1CCC[C@]12CN(Cc1cccc(C)n1)CCO2 | 0 | 0 | 0 | < 4.53
73 | CCCc1nc2c(c(C)c(C)n2Cc2ccccn2)c(N)c1CC | 13.8 and 17.26 | 1.43 and 1.529 | 100 | 5.166 and 5.178
74 | CC1(C)Cc2nc(C(C)(C)C)ncc2C(NC(=O)C2(N)CC2)C1 (stereo unspecified) | 0 | 0 | 0 | < 4.53
75 | CC(C)N(C)C(=O)c1ccc(CNc2ccncc2Cl)cc1 | 0 | 0 | 0 | < 4.53
76 | CC(C)OCCN1CCC(Nc2nccnc2C#N)CC1 | -6.463 and -12.72 | 1.108 and 0.9682 | 100 | 5.071 and 5.086
77 | COc1ccccc1N1CCN(C(=O)CSCC2CC2)C(C)C1 (stereo unspecified) | 0 | 0 | 0 | < 4.53
